Data as given in the supplement of paper PMC10307832.

Tests used:
Experiment in all cases: relative viability (nuclei count vs DMSO), 5 days (fraction); higher = more cells survive
[1] = compound: CC(O)(CS(=O)(=O)c1ccc(F)cc1)C(=O)Nc1ccc(C#N)c(C(F)(F)F)c1 [Bicalutamide] + Cc1nc(Nc2ncc(C(=O)Nc3c(C)cccc3Cl)s2)cc(N2CCN(CCO)CC2)n1 [Dasatinib] (partner 0.075 µM)
Procedure, shortened: (§1)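 Cells from lung cancer lines were seeded into 1536-well plates and, one day later, dosed by pin tool. Treatments were either a single drug or a fixed dose of an anchor drug with five library-drug doses (not always all listed) in √10 steps. After 5 days, nuclei were stained in a one-step fixation (final 0.05% Triton X-100, 1% formaldehyde, 1 ug/ml Hoechst) and counted on 4× images, and relative viability is the treated-to-vehicle nuclei ratio, as the median of duplicate plates.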

[2] = compound: C(C(=O)C(=O)O)Br [Bromopyruvate] + C[C@@H](Oc1cc(-c2cnn(C3CCNCC3)c2)cnc1N)c1c(Cl)ccc(F)c1Cl [Crizotinib] (partner 1 µM)
Procedure, shortened: as §1

[3] = compound: CC(O)(CS(=O)(=O)c1ccc(F)cc1)C(=O)Nc1ccc(C#N)c(C(F)(F)F)c1 [Bicalutamide] + CCNC(=O)c1noc(-c2cc(C(C)C)c(O)cc2O)c1-c1ccc(CN2CCOCC2)cc1 [Luminespib] (partner 0.01 µM)
Procedure, shortened: as §1

[4] = compound: CC(O)(CS(=O)(=O)c1ccc(F)cc1)C(=O)Nc1ccc(C#N)c(C(F)(F)F)c1 [Bicalutamide] + CC1(C)CCC(c2ccc(Cl)cc2)=C(CN2CCN(c3ccc(C(=O)NS(=O)(=O)c4ccc(N[C@H](CCN5CCOCC5)CSc5ccccc5)c(S(=O)(=O)C(F)(F)F)c4)cc3)CC2)C1 [Navitoclax] (partner 0.5 µM)
Procedure, shortened: as §1

| Cell Line | relative viability ([1]; first compound 0.08 µM) | relative viability ([1]; first compound 0.253 µM) | relative viability ([1]; first compound 0.8 µM) | relative viability ([1]; first compound 2.53 µM) | relative viability ([2]; first compound 1 µM) | relative viability ([2]; first compound 3.162 µM) | relative viability ([2]; first compound 31.62 µM) | relative viability ([2]; first compound 100 µM) | relative viability ([3]; first compound 0.08 µM) | relative viability ([3]; first compound 0.253 µM) | relative viability ([3]; first compound 0.8 µM) | relative viability ([3]; first compound 2.53 µM) | relative viability ([4]; first compound 0.08 µM) | relative viability ([4]; first compound 0.253 µM) | relative viability ([4]; first compound 0.8 µM) | relative viability ([4]; first compound 2.53 µM) | relative viability ([2]; first compound 10 µM) |
| --- | --- | --- | --- | --- | --- | --- | --- | --- | --- | --- | --- | --- | --- | --- | --- | --- | --- |
| HOP-62 | 0.663 | 0.646 | 0.815 | 0.516 | 0.923 | 0.876 | 0.952 | 0.65 | 0.917 | 1.01 | 1.09 | 0.885 | 1.03 | 1.12 | 1.03 | 0.982 | – |
| IA-LM | – | – | – | – | 0.642 | 0.796 | 0.789 | 0.522 | – | – | – | – | 0.945 | 0.876 | 0.99 | 0.751 | 0.634 |
| LC-2-ad | 0.693 | 0.514 | 0.701 | 0.514 | 0.218 | 0.47 | 0.52 | 0.469 | 1.1 | 0.954 | 1.03 | 1.06 | 0.484 | 0.484 | 0.449 | 0.475 | 0.458 |
| LCLC-97TM1 | 0.954 | 0.853 | 0.813 | 0.817 | – | – | 0.427 | 0.186 | 0.793 | 0.659 | 0.941 | 0.829 | 0.558 | 0.379 | 0.573 | 0.572 | 0.377 |
| LCLC-103H | 0.401 | 0.428 | 0.52 | 0.425 | 1.02 | 1.06 | 1.14 | 1.2 | 1.02 | 0.906 | 1.04 | 0.928 | – | – | – | – | 1.05 |
| LK-2 | 0.283 | 0.224 | 0.261 | 0.293 | 0.292 | 0.238 | 0.223 | 0.257 | 0.161 | 0.167 | 0.175 | 0.21 | 0.844 | 0.798 | 1.18 | 0.841 | 0.207 |
| LOU-NH91 | 0.635 | 0.43 | 0.605 | 0.568 | 0.769 | 0.708 | 0.76 | 0.724 | 0.367 | 0.295 | 0.331 | 0.322 | 0.676 | 0.545 | 0.865 | 0.818 | 0.712 |
| LU99A | 0.569 | 0.536 | 0.738 | 0.444 | 0.488 | 0.689 | 0.554 | 0.672 | 0.268 | 0.236 | 0.286 | 0.205 | 0.756 | 0.779 | 1.01 | 0.742 | 0.591 |
| LXF-289 | 0.214 | 0.25 | 0.227 | 0.194 | 0.841 | 0.807 | 0.791 | 0.833 | 0.667 | 0.6 | 0.637 | 0.694 | 0.951 | 0.952 | 0.999 | 0.931 | 0.786 |
| NCI-H23 | 0.789 | 0.67 | 1.07 | 0.802 | 0.386 | 0.514 | 0.494 | 0.423 | 0.223 | 0.195 | 0.171 | 0.212 | 0.86 | 0.642 | 0.949 | 0.754 | 0.514 |
| NCI-H322M | 0.236 | 0.248 | 0.264 | 0.319 | 0.958 | 0.804 | 0.806 | 0.943 | 0.872 | 0.891 | 1.03 | 1.06 | 1.3 | 1.18 | 1.28 | 1.22 | 0.948 |
| NCI-H358 | 0.154 | 0.14 | 0.16 | 0.145 | 0.681 | 0.702 | 0.604 | 0.64 | 0.488 | 0.295 | 0.582 | 0.32 | – | – | – | – | 0.521 |
| NCI-H441 | 0.646 | 0.63 | 0.664 | 0.534 | 0.884 | 0.739 | 0.82 | 0.337 | 0.291 | 0.377 | 0.356 | 0.411 | 0.551 | – | 0.622 | 0.518 | 0.661 |
| NCI-H522 | 0.815 | 0.722 | 0.901 | 0.87 | – | – | – | – | 1.07 | 1.14 | 1.45 | 1.17 | – | – | – | – | – |
| NCI-H650 | 0.483 | 0.42 | 0.456 | 0.356 | 0.7 | 0.721 | 0.634 | 0.711 | 0.822 | 0.793 | 0.947 | 0.792 | – | – | – | – | 0.678 |
| NCI-H661 | 0.95 | 0.844 | 1.03 | 0.722 | 1.05 | 0.897 | 1.12 | 1.11 | 0.938 | 0.94 | 0.928 | 0.954 | – | – | – | – | 0.854 |
| NCI-H1299 | – | – | – | – | 0.933 | 0.994 | 0.945 | 0.957 | – | – | – | – | 1.02 | 1.04 | 1.03 | 1.04 | 0.995 |
| NCI-H1395 | 0.406 | 0.404 | 0.414 | 0.353 | – | – | – | – | 0.726 | 0.774 | 0.854 | 0.621 | 1.1 | 1.1 | 1.55 | 1.1 | – |
| NCI-H1563 | 0.449 | 0.456 | 0.512 | 0.409 | 0.883 | 0.979 | 0.828 | 0.998 | 0.529 | 0.552 | 0.567 | 0.515 | – | – | – | – | 0.956 |
| NCI-H1623 | – | 0.524 | 0.562 | 0.54 | – | – | – | – | – | 0.647 | 0.596 | 0.459 | – | – | – | – | – |
| NCI-H1703 | – | – | – | – | 0.736 | 0.946 | 0.862 | 0.75 | – | – | – | – | 0.998 | 0.985 | 1.45 | 0.484 | 0.589 |
| NCI-H1793 | 0.369 | 0.349 | 0.486 | 0.377 | – | – | – | – | 0.198 | 0.364 | 0.203 | 0.165 | 0.516 | 0.353 | 0.479 | 0.512 | – |
| NCI-H2342 | 0.324 | 0.276 | 0.299 | 0.306 | – | – | – | – | 0.682 | 0.752 | 0.746 | 0.729 | – | – | – | – | – |
| SW 900 | 0.856 | 0.445 | 0.658 | 0.509 | – | – | – | – | 0.175 | 0.153 | 0.172 | 0.17 | – | – | – | – | – |
